Data from PubChem BioAssay AID2060491 (Molecular Pharmacology Branch, DTP, NCI, 2025).

System: 857933-349-R-J2-PDC complex spheroids, viability
Assay: Anticancer human tumor 857933-349-R-J2-PDC patient-derived colon adenocarcinoma cell line growth inhibition [GQUAD]
Conditions: for IC50: curve of first compound; for viability, T/C: stronger effect = lower value; active = viability on the fitted dose curve at most 10% of control; inactive = the rest
Summary of the method: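 Tumor cells were grown as complex spheroids with HUVEC endothelial cells and mesenchymal stem cells as stroma. G-quadruplex stabilizers were combined with targeted agents over half-log dilutions from near the clinical Cmax, or from 10 microM.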

[1] = second compound 0.0316 µM, first compound 0.0316 µM
[2] = second compound 0.0316 µM, first compound 0.1 µM
[3] = second compound 0.0316 µM, first compound 0.316 µM
[4] = second compound 0.0316 µM, first compound 1 µM
[5] = second compound 0.0316 µM, first compound 3.16 µM
[6] = second compound 0.0316 µM, first compound 10 µM
[7] = second compound 0.1 µM, first compound 0.0316 µM
[8] = second compound 0.1 µM, first compound 0.1 µM
[9] = second compound 0.1 µM, first compound 0.316 µM
[10] = second compound 0.1 µM, first compound 1 µM
[11] = second compound 0.1 µM, first compound 3.16 µM
[12] = second compound 0.1 µM, first compound 10 µM
[13] = second compound 0.316 µM, first compound 0.0316 µM
[14] = second compound 0.316 µM, first compound 0.1 µM
[15] = second compound 0.316 µM, first compound 0.316 µM
[16] = second compound 0.316 µM, first compound 1 µM
[17] = second compound 0.316 µM, first compound 3.16 µM
[18] = second compound 0.316 µM, first compound 10 µM
[19] = second compound 1 µM, first compound 0.0316 µM
[20] = second compound 1 µM, first compound 0.1 µM
[21] = second compound 1 µM, first compound 0.316 µM
[22] = second compound 1 µM, first compound 1 µM
[23] = second compound 1 µM, first compound 3.16 µM
[24] = second compound 1 µM, first compound 10 µM
[25] = second compound 3.16 µM, first compound 0.0316 µM
[26] = second compound 3.16 µM, first compound 0.1 µM
[27] = second compound 3.16 µM, first compound 0.316 µM
[28] = second compound 3.16 µM, first compound 1 µM
[29] = second compound 3.16 µM, first compound 3.16 µM
[30] = second compound 3.16 µM, first compound 10 µM
[31] = second compound 10 µM, first compound 0.0316 µM
[32] = second compound 10 µM, first compound 0.1 µM
[33] = second compound 10 µM, first compound 0.316 µM
[34] = second compound 10 µM, first compound 1 µM
[35] = second compound 10 µM, first compound 3.16 µM
[36] = second compound 10 µM, first compound 10 µM
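Also: spheroids exposed to compounds for one week before readout.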
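For viability, T/C in this document: percent viability relative to vehicle DMSO wells taken as 100%.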

CC(C)n1c(=O)n(C)c2cnc3cc(F)c(-c4ccc(OCCCN5CCCCC5)nc4)cc3c21 + CN(C)c1ccc(Nc2c3ccc(NC(=O)CCN4CCCC4)cc3nc3cc(NC(=O)CCN4CCCC4)ccc23)cc1
inactive: viability, T/C [1] 108% | viability, T/C [2] 96.8% | viability, T/C [3] 108% | viability, T/C [4] 104% | viability, T/C [5] 105% | viability, T/C [6] 102% | viability, T/C [7] 103% | viability, T/C [8] 101% | viability, T/C [9] 103% | viability, T/C [10] 105% | viability, T/C [11] 104% | viability, T/C [12] 102% | viability, T/C [13] 103% | viability, T/C [14] 103% | viability, T/C [15] 104% | viability, T/C [16] 99.1% | viability, T/C [17] 115% | viability, T/C [18] 98.3% | viability, T/C [19] 101% | viability, T/C [20] 92.3% | viability, T/C [21] 103% | viability, T/C [22] 95% | viability, T/C [23] 103% | viability, T/C [24] 94% | viability, T/C [25] 90.7% | viability, T/C [26] 83.5% | viability, T/C [27] 93.1% | viability, T/C [28] 85.5% | viability, T/C [29] 98.1% | viability, T/C [30] 70.3% | viability, T/C [31] 72.8% | viability, T/C [32] 74.7% | viability, T/C [33] 76% | viability, T/C [34] 74.4% | viability, T/C [35] 74.9% | viability, T/C [36] 63.7%
> 10 µM: IC50 (second compound 0.0316 µM) | IC50 (second compound 0.1 µM) | IC50 (second compound 0.316 µM) | IC50 (second compound 1 µM) | IC50 (second compound 3.16 µM) | IC50 (second compound 10 µM)

CC(=O)O[C@H]1C(=O)[C@@]2(C)[C@H]([C@H](OC(=O)c3ccccc3)[C@]3(O)C[C@H](OC(=O)[C@H](O)[C@@H](NC(=O)c4ccccc4)c4ccccc4)C(C)=C1C3(C)C)[C@]1(OC(C)=O)CO[C@@H]1C[C@@H]2O + Cc1[nH]c2ccc(F)cc2c1-c1nc2c3cccnc3c3ncccc3c2[nH]1
< 0.0316 µM: IC50 (second compound 0.0316 µM) | IC50 (second compound 0.1 µM) | IC50 (second compound 10 µM)
inactive: viability, T/C [1] 43.9% | viability, T/C [2] 16.9% | viability, T/C [3] 11.6% | viability, T/C [4] 11.4% | viability, T/C [5] 11.1% | viability, T/C [6] 12.6% | viability, T/C [7] 44.9% | viability, T/C [8] 17.1% | viability, T/C [9] 11.4% | viability, T/C [10] 11.8% | viability, T/C [11] 12.7% | viability, T/C [12] 13.1% | viability, T/C [13] 59.8% | viability, T/C [14] 17.8% | viability, T/C [15] 10.8% | viability, T/C [16] 11% | viability, T/C [17] 12.8% | viability, T/C [18] 13.5% | viability, T/C [19] 51.2% | viability, T/C [20] 17.7% | viability, T/C [21] 11.8% | viability, T/C [22] 12.3% | viability, T/C [23] 14.2% | viability, T/C [24] 12.4% | viability, T/C [25] 58% | viability, T/C [26] 16.6% | viability, T/C [27] 14.5% | viability, T/C [28] 12.8% | viability, T/C [29] 15% | viability, T/C [30] 16.4% | viability, T/C [31] 43.2% | viability, T/C [32] 17.1% | viability, T/C [33] 14% | viability, T/C [34] 13.3% | viability, T/C [35] 16.7% | viability, T/C [36] 16.2%
0.0413 µM: IC50 (second compound 0.316 µM)
0.0329 µM: IC50 (second compound 1 µM)
0.0395 µM: IC50 (second compound 3.16 µM)

C=CC(=O)N1CCN(c2nc(=O)n(-c3c(C)ccnc3C(C)C)c3nc(-c4c(O)cccc4F)c(F)cc23)C(C)C1 (stereo unspecified) + CN(C)c1ccc(Nc2c3ccc(NC(=O)CCN4CCCC4)cc3nc3cc(NC(=O)CCN4CCCC4)ccc23)cc1
> 10 µM: IC50 (second compound 0.0316 µM) | IC50 (second compound 0.1 µM) | IC50 (second compound 0.316 µM) | IC50 (second compound 1 µM) | IC50 (second compound 3.16 µM) | IC50 (second compound 10 µM)
inactive: viability, T/C [1] 114% | viability, T/C [2] 91.7% | viability, T/C [3] 108% | viability, T/C [4] 97.3% | viability, T/C [5] 114% | viability, T/C [6] 112% | viability, T/C [7] 104% | viability, T/C [8] 102% | viability, T/C [9] 102% | viability, T/C [10] 102% | viability, T/C [11] 108% | viability, T/C [12] 113% | viability, T/C [13] 105% | viability, T/C [14] 99.5% | viability, T/C [15] 99% | viability, T/C [16] 99.8% | viability, T/C [17] 112% | viability, T/C [18] 107% | viability, T/C [19] 97.2% | viability, T/C [20] 90.8% | viability, T/C [21] 102% | viability, T/C [22] 99.6% | viability, T/C [23] 113% | viability, T/C [24] 98.3% | viability, T/C [25] 90.2% | viability, T/C [26] 79.5% | viability, T/C [27] 91.4% | viability, T/C [28] 89.9% | viability, T/C [29] 100% | viability, T/C [30] 88% | viability, T/C [31] 73% | viability, T/C [32] 77.9% | viability, T/C [33] 70.8% | viability, T/C [34] 77.5% | viability, T/C [35] 82.3% | viability, T/C [36] 79.3%
